In patent publication US11267825B2 (AICURIS GMBH & CO. KG, priority 2017, dated 2022):
Counter-ions that a name gives are not always drawn.

System: HBV
Experiment: Determination of HBV DNA from the supernatants of HepAD38 cells (anti-HBV activity)
Format: cell-based, hepatitis B virus
Settings: Hepatitis B virus, 144 h; HBV DNA in HepAD38 supernatant at day 6; read-out: Cell Activity (EC50)
Procedure: Determination of HBV DNA from the Supernatants of HepAD38 Cells
The anti-HBV activity was analysed in the stable transfected cell line HepAD38, which has been described to secrete high levels of HBV virion particles (Ladner et al., 1997). In brief, HepAD38 cells were cultured at 37° C. at 5% CO2 and 95% humidity in 200 μl maintenance medium, which was Dulbecco's modified Eagle's medium/Nutrient Mixture F-12 (Gibco, Karlsruhe), 10% fetal bovine serum (PAN Biotech Aidenbach) supplemented with 50 μg/ml penicillin/streptomycin (Gibco, Karlsruhe), 2 mM L-glutamine (PAN Biotech, Aidenbach), 400 μg/ml G418 (AppliChem, Darmstadt) and 0.3 μg/ml tetracycline. Cells were subcultured once a week in a 1:5 ratio, but were usually not passaged more than ten times. For the assay 60,000 cells were seeded in maintenance medium without any tetracycline into each well of a 96-well plate and treated with serial half-log dilutions of test compound. To minimize edge effects the outer 36 wells of the plate were not used but were filled with assay medium. On each assay plate six wells for the virus control (untreated HepAD38 cells) and six wells for the cell control (HepAD38 cells treated with 0.3 μg/ml tetracycline) were allocated, respectively. In addition, one plate set with reference inhibitors like BAY 41-4109, entecavir, and lamivudine instead of screening compounds were prepared in each experiment. In general, experiments were performed thrice in triplicates. At day 6 HBV DNA from 100 μl filtrated cell culture supernatant (AcroPrep Advance 96 Filter Plate, […] Supor membran, PALL GmbH, Dreieich) was automatically purified on the MagNa Pure LC instrument using the MagNA Pure 96 DNA and Viral NA Small Volume Kit (Roche Diagnostics, Mannheim) according to the instructions of the manufacturer. EC50 values were calculated from relative copy numbers of HBV DNA. In brief, 5 μl of the 100 μl eluate containing HBV DNA were subjected to PCR LC480 Probes Master Kit (Roche) together with 1 μM antisense primer […], 0.5 μM sense primer […], 0.3 μM hybprobes […]-FL and LC640-[…]-PH (TIBMolBiol, Berlin) to a final volume of 12.5 μl. The PCR was performed on the Light Cycler 480 real time system (Roche Diagnostics, Mannheim) using the following protocol: Pre-incubation for 1 min at 95° C., amplification: 40 cycles×(10 sec at 95° C., 50 sec at 60° C., 1 sec at 70° C.), cooling for 10 sec at 40° C. Viral load was quantitated against known standards using HBV plasmid DNA of pCH-9/3091 (Nassal et al., 1990, Cell 63: 1357-1363) and the LightCycler 480 SW 1.5 software (Roche Diagnostics, Mannheim) and EC50 values were calculated using non-linear regression with GraphPad Prism 6 (GraphPad Software Inc., La Jolla, USA).

Row | SMILES | EC50 [µM]
1 | O=C(c1cc2ccccc2[nH]1)N1CCc2nc(Cl)sc2C1 [Example 207, 2-{2-chloro-4H,5H,6H,7H-[1,3]thiazolo[5,4-c]pyridine-5-carbonyl}-1H-indole] | < 100
2 | CCc1c(F)ccc2[nH]c(C(=O)N3CCc4nc(NCC5CCOC5)sc4C3)cc12 (stereo not drawn) [Example 256, 5-(4-ethyl-5-fluoro-1H-indole-2-carbonyl)-N-[(oxolan-3-yl)methyl]-4H,5H,6H,7H-[1,3]thiazolo[5,4-c]pyridin-2-amine] | < 100
3 | CC(O)c1ccc(F)c2[nH]c(C(=O)N3CCc4nc(NCC5CCOC5)sc4C3)cc12 (stereo not drawn) [Example 257, 1-[7-fluoro-2-(2-{[(oxolan-3-yl)methyl]amino}-4H,5H,6H,7H-[1,3]thiazolo[5,4-c]pyridine-5-carbonyl)-1H-indol-4-yl]ethan-1-ol] | < 100
4 | CC(C)CC(CO)CNc1nc2c(s1)CN(C(=O)c1cc3ccccc3[nH]1)CC2 (stereo not drawn) [Example 287, 2-({[5-(1H-indole-2-carbonyl)-4H,5H,6H,7H-[1,3]thiazolo[5,4-c]pyridin-2-yl]amino}methyl)-4-methylpentan-1-ol] | < 1
5 | CC1(C(=O)Nc2nc3c(s2)CN(C(=O)c2cc4cc(F)c(Cl)cc4[nH]2)CC3)CC1 [Example 304, N-[5-(6-chloro-5-fluoro-1H-indole-2-carbonyl)-4H,5H,6H,7H-[1,3]thiazolo[5,4-c]pyridin-2-yl]-1-methylcyclopropane-1-carboxamide] | < 1
6 | CC1(C(=O)Nc2nc3c(s2)CN(C(=O)c2cc4c(Cl)cc(F)cc4[nH]2)CC3)CC1 [Example 305, N-[5-(4-chloro-6-fluoro-1H-indole-2-carbonyl)-4H,5H,6H,7H-[1,3]thiazolo[5,4-c]pyridin-2-yl]-1-methylcyclopropane-1-carboxamide] | < 1
7 | CCc1cc(F)cc2[nH]c(C(=O)N3CCc4nc(NC(=O)C5(C)CC5)sc4C3)cc12 [Example 306, N-[5-(4-ethyl-6-fluoro-1H-indole-2-carbonyl)-4H,5H,6H,7H-[1,3]thiazolo[5,4-c]pyridin-2-yl]-1-methylcyclopropane-1-carboxamide] | < 1
8 | Cc1cc(F)cc2[nH]c(C(=O)N3CCc4nc(NC(=O)C5(C)CC5)sc4C3)cc12 [Example 307, N-[5-(6-fluoro-4-methyl-1H-indole-2-carbonyl)-4H,5H,6H,7H-[1,3]thiazolo[5,4-c]pyridin-2-yl]-1-methylcyclopropane-1-carboxamide] | < 1
9 | CC1(C(=O)Nc2nc3c(s2)CN(C(=O)c2cc4c(Cl)cccc4[nH]2)CC3)CC1 [Example 308, N-[5-(4-chloro-1H-indole-2-carbonyl)-4H,5H,6H,7H-[1,3]thiazolo[5,4-c]pyridin-2-yl]-1-methylcyclopropane-1-carboxamide] | < 1
10 | CCOC(=O)C1(CNc2nc3c(s2)CN(C(=O)c2cc4ccccc4[nH]2)CC3)CC1 [Example 317, Ethyl 1-({[5-(1H-indole-2-carbonyl)-4H,5H,6H,7H-[1,3]thiazolo[5,4-c]pyridin-2-yl]amino}methyl)cyclopropane-1-carboxylate] | 1 to 10
11 | O=C(c1cc2ccccc2[nH]1)N1CCc2nc(NC(=O)C3(F)CC3)sc2C1 [Example 337, 1-fluoro-N-[5-(1H-indole-2-carbonyl)-4H,5H,6H,7H-[1,3]thiazolo[5,4-c]pyridin-2-yl]cyclopropane-1-carboxamide] | < 1
12 | O=C(c1cc2c(Cl)cc(F)cc2[nH]1)N1CCc2nc(N[C@H]3CC[C@@H](O)CC3)sc2C1 [Example 343, (1s,4s)-4-{[5-(4-chloro-6-fluoro-1H-indole-2-carbonyl)-4H,5H,6H,7H-[1,3]thiazolo[5,4-c]pyridin-2-yl]amino}cyclohexan-1-ol] | < 1
13 | O=C(c1cc2ccccc2[nH]1)N1CCc2nc(NCC3(C(=O)O)CC3)sc2C1 [Example 345, 1-({[5-(1H-indole-2-carbonyl)-4H,5H,6H,7H-[1,3]thiazolo[5,4-c]pyridin-2-yl]amino}methyl)cyclopropane-1-carboxylic acid] | 1 to 10
14 | O=C(c1cc2ccccc2[nH]1)N1CCc2nc(NC(=O)C3(O)CC3)sc2C1 [Example 346, 1-hydroxy-N-[5-(1H-indole-2-carbonyl)-4H,5H,6H,7H-[1,3]thiazolo[5,4-c]pyridin-2-yl]cyclopropane-1-carboxamide] | < 1
15 | COCC1(Nc2nc3c(s2)CN(C(=O)c2cc4ccccc4[nH]2)CC3)CCC1 [Example 347, 5-(1H-indole-2-carbonyl)-N-[1-(methoxymethyl)cyclobutyl]-4H,5H,6H,7H-[1,3]thiazolo[5,4-c]pyridin-2-amine] | < 1
16 | O=C(c1cc2ccccc2[nH]1)N1CCc2nc(N[C@@H]3CCCC[C@@H]3O)sc2C1 [Example 348, (1S,2R)-2-{[5-(1H-indole-2-carbonyl)-4H,5H,6H,7H-[1,3]thiazolo[5,4-c]pyridin-2-yl]amino}cyclohexan-1-ol] | < 1
17 | O=C(c1cc2ccccc2[nH]1)N1CCc2nc(NCCn3ccnc3)sc2C1 [Example 349, N-[2-(1H-imidazol-1-yl)ethyl]-5-(1H-indole-2-carbonyl)-4H,5H,6H,7H-[1,3]thiazolo[5,4-c]pyridin-2-amine] | < 1
18 | O=C(c1cc2ccccc2[nH]1)N1CCc2nc(N[C@H]3CCC[C@@H](O)C3)sc2C1 [Example 350, (1R,3S)-3-{[5-(1H-indole-2-carbonyl)-4H,5H,6H,7H-[1,3]thiazolo[5,4-c]pyridin-2-yl]amino}cyclohexan-1-ol] | < 1
19 | O=C(CC1CCOC1)Nc1nc2c(s1)CN(C(=O)c1cc3ccccc3[nH]1)CC2 (stereo not drawn) [Example 351, N-[5-(1H-indole-2-carbonyl)-4H,5H,6H,7H-[1,3]thiazolo[5,4-c]pyridin-2-yl]-2-(oxolan-3-yl)acetamide] | < 1
20 | CC(C)c1cccc2[nH]c(C(=O)N3CCc4nc(NCC5(O)CCC5)sc4C3)cc12 [Example 368, 1-[({5-[4-(propan-2-yl)-1H-indole-2-carbonyl]-4H,5H,6H,7H-[1,3]thiazolo[5,4-c]pyridin-2-yl}amino)methyl]cyclobutan-1-ol] | < 1
21 | O=C(c1cc2cc(F)c(F)cc2[nH]1)N1CCc2nc(NCC3(O)CCC3)sc2C1 [Example 369, 1-({[5-(5,6-difluoro-1H-indole-2-carbonyl)-4H,5H,6H,7H-[1,3]thiazolo[5,4-c]pyridin-2-yl]amino}methyl)cyclobutan-1-ol] | < 1
22 | O=C(c1cc2cc(F)c(Cl)cc2[nH]1)N1CCc2nc(NCC3(O)CCC3)sc2C1 [Example 373, 1-({[5-(6-chloro-5-fluoro-1H-indole-2-carbonyl)-4H,5H,6H,7H-[1,3]thiazolo[5,4-c]pyridin-2-yl]amino}methyl)cyclobutan-1-ol] | < 1
23 | O=C(c1cc2c(C(F)(F)F)cccc2[nH]1)N1CCc2nc(NCC3(O)CCC3)sc2C1 [Example 374, 1-[({5-[4-(trifluoromethyl)-1H-indole-2-carbonyl]-4H,5H,6H,7H-[1,3]thiazolo[5,4-c]pyridin-2-yl}amino)methyl]cyclobutan-1-ol] | < 1
24 | CC(=O)N1CC(C(=O)Nc2nc3c(s2)CN(C(=O)c2cc4ccccc4[nH]2)CC3)C1 [Example 382, 1-acetyl-N-[5-(1H-indole-2-carbonyl)-4H,5H,6H,7H-[1,3]thiazolo[5,4-c]pyridin-2-yl]azetidine-3-carboxamide] | < 1
25 | CN1CC(C(=O)Nc2nc3c(s2)CN(C(=O)c2cc4ccccc4[nH]2)CC3)C1 [Example 383, N-[5-(1H-indole-2-carbonyl)-4H,5H,6H,7H-[1,3]thiazolo[5,4-c]pyridin-2-yl]-1-methylazetidine-3-carboxamide] | 1 to 10
26 | O=C(Nc1nc2c(s1)CN(C(=O)c1cc3c(F)c(F)ccc3[nH]1)CC2)C1CCOCC1 [Example 398, N-[5-(4,5-difluoro-1H-indole-2-carbonyl)-4H,5H,6H,7H-[1,3]thiazolo[5,4-c]pyridin-2-yl]oxane-4-carboxamide] | < 1

Same assay, conditions: Hepatitis B virus, HePAD38, 144 h, read-out: Cell Activity (EC50)

Row | SMILES | EC50 [µM]
27 | O=C(Nc1nc2c(s1)CN(C(=O)c1cc3ccccc3[nH]1)CC2)C1CNC1 [Example 386, N-[5-(1H-indole-2-carbonyl)-4H,5H,6H,7H-[1,3]thiazolo[5,4-c]pyridin-2-yl]azetidine-3-carboxamide hydrochloride] | 1 to 10
